Experimental findings from patent publication US9926377B2, “Anti-GPC3 antibodies and immunoconjugates” (GENENTECH, INC., priority 2014, dated 2018) are described below.

Read-outs that look alike come from different tables or passages of the source.

One assay deals with JHH5. Briefly: Cell line sensitivity (proliferation, CellTiter-GloII), JHH5. Format: cell-based. Conditions: 120 h. The method, then:
(§1) Various GPC3-expressing cell lines were tested for sensitivity to free nemorubicin derivative, PNU-159682, which has the structure:
(§2) [drawing 32] as follows. Proliferation in the presence of PNU-159682 or SG-2057 were assessed using cells plated at 1000 cells per well in 50 μl of normal growth medium in 96-well clear-bottom plates (PerkinElmer Life Sciences). Twenty-four hours later, an additional 50 μl of culture medium with serial dilutions of the drug was added to triplicate wells. Three or 5 days later, cell numbers were determined using CellTiter-GloII (Promega Corp.) and with an EnVision 2101 multilabel reader (PerkinElmer).
(ATP-based viability assays read luminescence as a measure of living cells.)

The test system of a further assay is 293S. Description: Cell line sensitivity (proliferation, CellTiter-GloII), 293S. It counts as cell-based. The conditions noted are these: 120 h. The method, then: as §1, §2
A further assay relates to HepG2. Briefly: Cell line sensitivity (proliferation, CellTiter-GloII), HepG2. It counts as cell-based. The conditions noted are these: Homo sapiens. The procedure:
as §1, §2

The subject of a further assay is 293_GPC3. Description: Cell line sensitivity (proliferation, CellTiter-GloII), 293_GPC3. Format: cell-based. The conditions noted are these: 120 h. The procedure:
as §1, §2

In another assay the test system is Hep3B.2.1-7. Briefly: Cell line sensitivity (proliferation, CellTiter-GloII), Hep3B.2.1-7. It counts as cell-based. Conditions: 120 h. The method, then: as §1, §2
The test system of another assay is JHH7. Briefly: Cell line sensitivity (proliferation, CellTiter-GloII), JHH7. Format: cell-based. The method, then:
as §1, §2

Another assay concerns PC3. Briefly: Cell line sensitivity (proliferation, CellTiter-GloII), PC3. Format: cell-based. Conditions: Homo sapiens, PC-3, 120 h. The method, then:
as §1, §2

A further assay deals with Huh7. Description: Cell line sensitivity (proliferation, CellTiter-GloII), Huh7. It counts as cell-based. The conditions noted are these: Homo sapiens, Huh-7, 120 h. The method, then:
as §1, §2

Assay [1] concerns full-length N-terminal gD-tagged cynomolgus monkey GPC3. Description: FACS binding to cynomolgus monkey GPC3 on 293 cells. The conditions noted are these: cynomolgus monkey GPC3 expressed on the surface of 293 cells. The procedure:
(§3) Antibodies 15G1 and 4A11 were tested for binding to full-length N-terminal gD-tagged cynomolgus monkey GPC3 and full-length N-terminal gD-tagged rat GPC3 expressed on the surface of 293 cells by FACS. Both antibodies bound to cynomolgus monkey GPC3. 15G1, but not 4A11, also bound to rat GPC3. […] The 7H1 epitope is also highly conserved between human, cynomolgus monkey, rhesus macaque, mouse, and rat GPC3, and as discussed above, antibody 7H1 detects human, cynomolgus monkey, rat, and mouse GPC3 by Western blot.

The target in assay [2] is T1, full-length N-terminal gD-tagged rat GPC3 (Rattus norvegicus, UniProt P13265).
T1 construct: full-length N-terminal gD-tagged rat GPC3 expressed on the surface of 293 cells by FACS; gD (N); expressed in transfected cells; host or cells: 293 cells
Briefly: FACS binding to rat GPC3 on 293 cells. The conditions noted are these: rat GPC3 expressed on the surface of 293 cells. The procedure: as §3

The target in assay [3] is T2, human GPC3 (Homo sapiens, UniProt P51654).
T2 construct: C-terminal glycophosphatidylinositol anchor (GPI link) (C); expressed in transfected cells; host or cells: 293 cells
T2 sequence (P51654 359-509): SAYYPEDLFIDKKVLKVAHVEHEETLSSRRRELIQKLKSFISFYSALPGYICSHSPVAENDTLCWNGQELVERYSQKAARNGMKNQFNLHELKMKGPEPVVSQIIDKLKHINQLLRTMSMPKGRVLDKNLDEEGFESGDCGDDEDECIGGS
Description: FACS binding to huGPC truncation constructs on 293 cells. The conditions noted are these: huGPC(aa359-509) on 293 cells. An excerpt: (§4) C-terminal truncation constructs of huGPC(aa359-589) were made to further refine the epitopes for antibodies 4A11 and 15G1. Three different […] truncations were made, comprising amino acids 359 to 420 of human GPC3, amino acids 359 to 470 of human GPC3, and amino acids 359 to 509 of human GPC3. The three C-terminal truncations each comprised an HSV N-terminal signal sequence (SS) and gD sequence (SEQ ID NO: 41) and C-terminal glycophosphatidylinositol anchor (GPI link). The huGPC truncation constructs were expressed on the surface of 293 cells and antibody binding was determined by FACS. An anti-gD was used as a positive control. Vector-transfected 293 cells were used as a negative control.

Assay [4] concerns the target T3, human GPC3 (Homo sapiens, UniProt P51654).
T3 construct: C-terminal glycophosphatidylinositol anchor (GPI link) (C); expressed in transfected cells; host or cells: 293 cells
T3 sequence (P51654 359-559): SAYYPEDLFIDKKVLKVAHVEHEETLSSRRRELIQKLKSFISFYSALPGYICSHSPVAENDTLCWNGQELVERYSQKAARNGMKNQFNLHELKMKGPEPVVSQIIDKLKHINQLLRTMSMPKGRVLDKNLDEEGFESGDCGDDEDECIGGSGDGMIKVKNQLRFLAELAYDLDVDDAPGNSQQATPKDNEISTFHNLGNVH
Described as above. Conditions: huGPC(aa359-559) on 293 cells.
From the text: as §4

Assay [5] deals with T4, human GPC3 (Homo sapiens, UniProt P51654).
T4 construct: C-terminal glycophosphatidylinositol anchor (GPI link) (C); expressed in transfected cells; host or cells: 293 cells
T4 sequence (P51654 359-470): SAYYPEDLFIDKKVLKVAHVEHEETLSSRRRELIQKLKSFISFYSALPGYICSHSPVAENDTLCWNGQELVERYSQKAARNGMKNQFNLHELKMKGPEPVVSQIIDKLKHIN
The assay is described as above. The conditions noted are these: huGPC(aa359-470) on 293 cells.
From the text: as §4

The target in assay [6] is T5, human GPC3 (Homo sapiens, UniProt P51654).
T5 construct: C-terminal glycophosphatidylinositol anchor (GPI link) (C); expressed in transfected cells; host or cells: 293 cells
T5 sequence (P51654 359-420): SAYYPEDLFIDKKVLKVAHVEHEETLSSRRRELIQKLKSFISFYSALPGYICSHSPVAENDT
The assay is described as above. The conditions noted are these: huGPC(aa359-420) on 293 cells.
From the text: as §4

full-length N-terminal gD-tagged cynomolgus monkey GPC3, sequence (as listed by the source): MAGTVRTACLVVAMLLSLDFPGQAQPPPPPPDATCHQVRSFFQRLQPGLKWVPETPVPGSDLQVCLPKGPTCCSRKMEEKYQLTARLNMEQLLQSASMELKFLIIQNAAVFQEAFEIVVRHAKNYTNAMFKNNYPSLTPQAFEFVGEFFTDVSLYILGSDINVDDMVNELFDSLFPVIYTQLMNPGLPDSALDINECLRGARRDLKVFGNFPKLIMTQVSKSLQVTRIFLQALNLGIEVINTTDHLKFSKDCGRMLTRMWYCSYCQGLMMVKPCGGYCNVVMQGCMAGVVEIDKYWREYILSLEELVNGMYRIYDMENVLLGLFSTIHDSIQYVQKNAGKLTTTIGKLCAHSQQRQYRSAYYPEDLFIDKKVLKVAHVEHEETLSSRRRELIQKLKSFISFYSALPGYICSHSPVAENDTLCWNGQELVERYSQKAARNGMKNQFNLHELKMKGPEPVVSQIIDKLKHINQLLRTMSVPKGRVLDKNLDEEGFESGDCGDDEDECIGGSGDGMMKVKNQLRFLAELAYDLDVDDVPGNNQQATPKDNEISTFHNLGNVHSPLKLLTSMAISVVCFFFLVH
T1 sequence (P13265 with tags, fused parts or gaps limits assumed): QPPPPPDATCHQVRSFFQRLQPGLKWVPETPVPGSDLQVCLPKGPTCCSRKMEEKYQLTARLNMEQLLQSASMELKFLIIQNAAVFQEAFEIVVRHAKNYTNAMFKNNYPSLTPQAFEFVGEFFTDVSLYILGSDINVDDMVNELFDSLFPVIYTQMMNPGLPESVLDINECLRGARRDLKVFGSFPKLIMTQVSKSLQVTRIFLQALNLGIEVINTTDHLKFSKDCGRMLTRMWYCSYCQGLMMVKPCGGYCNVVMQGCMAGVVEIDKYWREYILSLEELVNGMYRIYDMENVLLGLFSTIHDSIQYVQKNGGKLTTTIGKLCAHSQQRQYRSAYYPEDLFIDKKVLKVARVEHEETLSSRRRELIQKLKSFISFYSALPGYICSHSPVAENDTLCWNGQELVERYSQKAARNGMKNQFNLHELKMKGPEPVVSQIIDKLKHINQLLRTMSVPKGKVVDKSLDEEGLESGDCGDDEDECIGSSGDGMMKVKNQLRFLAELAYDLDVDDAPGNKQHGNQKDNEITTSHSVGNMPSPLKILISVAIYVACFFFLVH

For `C=C1C[C@H]2C=Nc3cc(OCCCCCOc4cc5c(cc4OC)C(=O)N4CC(=C)C[C@H]4C=N5)c(OC)cc3C(=O)N2C1` [SG-2057], the EC50 came to 0.105 nM in the assay with JHH5; 0.056 nM in the assay with 293S; 0.029 nM in the assay on HepG2 (HepG2, 120 h); 0.034 nM in the assay on 293_GPC3; 0.474 nM with Hep3B.2.1-7; 0.135 nM with JHH7 (JHH7, 120 h). The EC50 was determined as 0.122 nM in the assay with PC3 and 0.147 nM in the assay on Huh7.
Regarding `COc1cccc2c1C(=O)c1c(O)c3c(c(O)c1C2=O)C[C@@](O)(C(=O)CO)C[C@@H]3O[C@H]1C[C@H]2[C@H](O[C@@H]3[C@@H](OC)OCCN32)[C@H](C)O1` [PNU-159682], the EC50 with JHH5 (JHH5, free drug, cell numbers three or 5 days after drug addition, read-out: EC50) is 0.031 nM; with 293S (293S, free drug, cell numbers three or 5 days after drug addition, read-out: EC50), 0.022 nM; with HepG2 (120 h, HepG2, free drug, cell numbers three or 5 days after drug addition, read-out: EC50), 0.029 nM; in the assay with 293_GPC3 (293_GPC3, free drug, cell numbers three or 5 days after drug addition, read-out: EC50), 0.019 nM; in the assay with Hep3B.2.1-7 (Hep3B.2.1-7, free drug, cell numbers three or 5 days after drug addition, read-out: EC50) it was 0.042 nM; with JHH7 (120 h, JHH7, free drug, cell numbers three or 5 days after drug addition, read-out: EC50), 0.038 nM. Further, the EC50 was 0.051 nM in the assay with PC3 (PC3, free drug, cell numbers three or 5 days after drug addition, read-out: EC50) and 0.029 nM in the assay on Huh7 (Huh7, free drug, cell numbers three or 5 days after drug addition, read-out: EC50).

B1: 4A11: anti-GPC3 monoclonal antibody; heavy and light chain variable regions SEQ ID NOs: 10 and 11 (antibody, V domains shown)
VH: EVQLQQSAAELARPGASVRMSCRTSGYTFTTYTIHWMKQRPGQGLEWIGYINPNGGYTEYNQKFRDRTTLTADKSSSTAYMQLSSLTSEDSAVYYCTRNFDYWGQGTTLTVSS
VL: DIVMTQSPSSMYASLGERVTITCKASQDINSYLSWFQQKPGKSPKTLIYRVNRLVDGVPSRFSGSGSGQDYSLTISSLEYEDVGIYYCLQYDEFPLTLGAGTKLELK
On to B1, for which the “Binding by FACS” value in assay [1] was “bound”; in assay [2], “not”; with human GPC3 [3], “bound”; with human GPC3 [4] it was “bound”; with human GPC3 [5] it was “not”; with human GPC3 [6] it was “not”.

B2: 15G1: anti-GPC3 monoclonal antibody; heavy and light chain variable regions SEQ ID NOs: 18 and 19 (antibody, V domains shown)
VH: EVQLLETGGGLVQPGGSRGLSCEGSGFTFSGFWMSWVRQTPGKTLEWIGDINSDGSSINYAPSIKDRFTIFRDNDKSILYLQMTNVRSEDTGTYFCVTTYGDYWGQGTTLTVSS
VL: DIVMTQSQKFMSTSVGDRVSVTCKASQNVGSHVGWYQQKSGQSPKALIYSASNRYIGVPDRFTGSGSGTDFTLTISNVQSEDLAEYFCQQYHIYPYTFGGGTRLEIK
B2: the “Binding by FACS” value in [1] is reported as “bound”; in assay [2], “bound”; in the assay with human GPC3 [3], “bound”; in the assay with human GPC3 [4], “bound”; with human GPC3 [5], “bound”; with human GPC3 [6] it was “not”.

The EC50 is the concentration needed to bring the measured effect to its halfway point.
